Measurements published in the supplement of paper PMC11208160.

Test: recombinant barcode read abundance after kanamycin selection (control-corrected) (log10(CPM+1)); higher = more efficient recombination; sequences stand for … in AGTGCAGAGAAAATCGGCCAGTTTTCTCTGCCTGCAGTCCGCATGCCGT…AGATTTATGCAGCGGACTGCCTTTCTCCCAAAGTGATAAACCGGACAGTATCATGGACCGGTTTTCCCGGTAATCCGTATTTGCAAGGTTGGTTTCACT; site = the 11-nt target
How it was run: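 Recombination efficiency comes from barcode counts at recombinant junctions, converted to counts per million, averaged and corrected against the control. Values appear as log10(CPM+1). They were obtained from a pooled E. coli screen in which each oligo paired a target with an IS621 bridge RNA target-binding loop, and cells were plated in duplicate on chloramphenicol/ampicillin LB agar or on chloramphenicol/ampicillin/kanamycin with 0.1 mM IPTG.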
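Also: IS621 recombinase and bridge RNA in Escherichia coli cells.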

In order of falling “recombinant barcode read abundance (log10)” value:
1. CTAGACTCTTGGGTTCTAACCTGTTGCTT (site CTAGACTCTAA)  2.89
2. CTAGACTCTTGGGTTCTAACCTGTTGCTC (site CTAGACTCTGA)  2.84
3. CTAGTGTCTTGGGTTCTAACCTGTTGCTA (site CTAGTGTCTTA)  2.72
4. CTAGATTCTTGGGTTCTAACCTGTTGCAT (site CTAGATTCTAT)  2.61
5. CTAGAAGCTTGGGTTCTAACCTGTTGCGT (site CTAGAAGCTAC)  2.52
6. CTACTAGCTTGGGTTCTAACCTGTTGCAG (site CTACTAGCTCT)  2.5
7. CTATGACCTTGGGTTCTAACCTGTTGCGT (site CTATGACCTAC)  2.11
8. CTAGACTCTTGGGTTCTAACCTGTTGCAA (site CTAGACTCTTT)  2
9. CTAGTGACTTGGGTTCTAACCTGTTGCGA (site CTAGTGACTTC)  1.99
10. CTAGATGCTTGGGTTCTAACCTGTTGCGA (site CTAGATGCTTC)  1.94
11. CTAGTGTCTTGGGTTCTAACCTGTTGCAC (site CTAGTGTCTGT)  1.88
12. CTAGTGACTTGGGTTCTAACCTGTTGCGG (site CTAGTGACTCC)  1.74
13. CTATGACCTTGGGTTCTAACCTGTTGCTT (site CTATGACCTAA)  1.4
14. CTATGGACTTGGGTTCTAACCTGTTGCAA (site CTATGGACTTT)  1.39
15. CTATGACCTTGGGTTCTAACCTGTTGCGT (site CTATGACCTAT)  1.26
16. CTATGACCTTGGGTTCTAACCTGTTGCTT (site CTATGACCTAG)  1.26
17. CTACTAGCTTGGGTTCTAACCTGTTGCAT (site CTACTAGCTAT)  1.18
18. CTACGTTCTTGGGTTCTAACCTGTTGCAC (site CTACGTTCTGT)  1.1
19. CTAGAAGCTTGGGTTCTAACCTGTTGCGT (site CTAGGAGCTAC)  1.05
20. CTAGCCACTTGGGTTCTAACCTGTTGCTA (site CTAGCCACTTA)  1.01
21. CTACGTCCTTGGGTTCTAACCTGTTGCTC (site CTACGTCCTCA)  0.942
22. CTACGTCCTTGGGTTCTAACCTGTTGCTC (site CTACGTCCTGA)  0.91
23. CTAGGAGCTTGGGTTCTAACCTGTTGCTC (site CTAGGAGCTGA)  0.885
24. CTATATACTTGGGTTCTAACCTGTTGCTT (site CTATATACTAA)  0.804
25. CTAGACTCTTGGGTTCTAACCTGTTGCAA (site CTAGACTCTAT)  0.644
26. CTAGGAACTTGGGTTCTAACCTGTTGCTA (site CTAGGAACTTA)  0.635
27. CTAGTGACTTGGGTTCTAACCTGTTGCGA (site CTAGTGACTCC)  0.576
28. CTATGACCTTGGGTTCTAACCTGTTGCAT (site CTATGACCTAT)  0.568
29. CTAGGAACTTGGGTTCTAACCTGTTGCTA (site AGGTTCCCTCC)  0.454
30. CTAGCAGCTTGGGTTCTAACCTGTTGCAT (site CTAGCAGCTAT)  0.434
31. CTACGGTCTTGGGTTCTAACCTGTTGCAC (site CTACGGTCTGT)  0.404
32. CTATGACCTTGGGTTCTAACCTGTTGCTT (site CTATGACCTAT)  0.394
33. CTAGCCACTTGGGTTCTAACCTGTTGCTA (site CTAGCGACTCA)  0.38
34. CTAGTGACTTGGGTTCTAACCTGTTGCGG (site CTAGTGACTTC)  0.352
35. CTAGACTCTTGGGTTCTAACCTGTTGCTT (site CTAGACTCTCA)  0.304
36. CTAGACTCTTGGGTTCTAACCTGTTGCAA (site CTAGACTCTCT)  0.287
37. CTATGAACTTGGGTTCTAACCTGTTGCCA (site CTATGAACTTG)  0.283
38. CTAGACTCTTGGGTTCTAACCTGTTGCTC (site CTAGACTCTTA)  0.275
39. CTATGGACTTGGGTTCTAACCTGTTGCAA (site CTATGGACTGT)  0.274
40. CTAGACTCTTGGGTTCTAACCTGTTGCTT (site CTAGACTCTTA)  0.261
41. CTAGCAACTTGGGTTCTAACCTGTTGCTT (site CTAGCAACTAA)  0.26
42. CTACGGTCTTGGGTTCTAACCTGTTGCAC (site CTACGATCTGT)  0.256
43. CTAGGAGCTTGGGTTCTAACCTGTTGCTC (site CTAGGAGCTAA)  0.241
44. CTACGGTCTTGGGTTCTAACCTGTTGCAC (site CTACGCTCTGT)  0.238
45. CTATGGACTTGGGTTCTAACCTGTTGCAA (site CTATGGACTCT)  0.23
46. CTAGGAGCTTGGGTTCTAACCTGTTGCTC (site CTAGGAGCTCA)  0.222
47. CTATGACCTTGGGTTCTAACCTGTTGCGT (site CTATGACCTAG)  0.211
48. CTAGTGTCTTGGGTTCTAACCTGTTGCAC (site CTAGTCACTGT)  0.198
49. CTAGCAGCTTGGGTTCTAACCTGTTGCAT (site CTAGCAACTAA)  0.197
50. CTACGTCCTTGGGTTCTAACCTGTTGCTC (site CTACGTCCTAA)  0.191
51. CTATGACCTTGGGTTCTAACCTGTTGCGT (site CTATGACCTAA)  0.191
52. CTATGACCTTGGGTTCTAACCTGTTGCAT (site CTATGACCTAG)  0.19
53. CTACTAGCTTGGGTTCTAACCTGTTGCAG (site CTACTAGCTAT)  0.173
54. CTACTAGCTTGGGTTCTAACCTGTTGCAT (site CTACTAGCTGT)  0.167
55. CTATAGGCTTGGGTTCTAACCTGTTGCCT (site CTATAGGCTAG)  0.159
56. CTATATACTTGGGTTCTAACCTGTTGCCA (site CTATATACTTG)  0.154
57. CTAGTGACTTGGGTTCTAACCTGTTGCGG (site CTAGTGACTGC)  0.141
58. CTACTAGCTTGGGTTCTAACCTGTTGCAT (site CTACTAGCTTT)  0.139
59. CTATGACCTTGGGTTCTAACCTGTTGCAT (site CTATGACCTAC)  0.139
60. CTAGGAGCTTGGGTTCTAACCTGTTGCTC (site CTAGGAGCTTA)  0.126
61. CTAGCAACTTGGGTTCTAACCTGTTGCTT (site CTAGCAGCTAT)  0.124
62. CTACTAGCTTGGGTTCTAACCTGTTGCAT (site CTACTAGCTCT)  0.115
63. CTAGTGACTTGGGTTCTAACCTGTTGCGG (site CTAGTGACTAC)  0.0948
64. CTAGATTCTTGGGTTCTAACCTGTTGCAT (site ACGATAACTTG)  0.0921
65. CTATATACTTGGGTTCTAACCTGTTGCTT (site CTAAATACTAA)  0.088
66. CTACGTTCTTGGGTTCTAACCTGTTGCAC (site CTACGATCTGT)  0.0857
67. CTATAGGCTTGGGTTCTAACCTGTTGCCT (site ATATACGCTAG)  0.0845
68. CTACGTTCTTGGGTTCTAACCTGTTGCAC (site CTACGGTCTGT)  0.0816
69. CTACGGTCTTGGGTTCTAACCTGTTGCAC (site CTACGTTCTGT)  0.0783
70. CTATGAACTTGGGTTCTAACCTGTTGCCA (site GACATTCCTAA)  0.0769
71. CTAGACTCTTGGGTTCTAACCTGTTGCTT (site CTAGACTCTGA)  0.0758
72. CTATGACCTTGGGTTCTAACCTGTTGCAT (site CTATGACCTAA)  0.0613
73. CTAGTGACTTGGGTTCTAACCTGTTGCGA (site CTAGTGACTGC)  0.0599
74. CTAGTGACTTGGGTTCTAACCTGTTGCGA (site CTAGTGACTAC)  0.0588
75. CTAGACTCTTGGGTTCTAACCTGTTGCAA (site CTAGACTCTGT)  0.0566
76. CTACTAGCTTGGGTTCTAACCTGTTGCAG (site CTACTAGCTTT)  0.0541
77. CTAGACTCTTGGGTTCTAACCTGTTGCTC (site CTAGACTCTAA)  0.0434
78. CTAGATGCTTGGGTTCTAACCTGTTGCGA (site AGTTCATCTAT)  0.0418
79. CTATGACCTTGGGTTCTAACCTGTTGCTT (site CTATGACCTAC)  0.0411
80. CTACGTCCTTGGGTTCTAACCTGTTGCTC (site CTACGTCCTTA)  0.0289
81. CTAGACTCTTGGGTTCTAACCTGTTGCTC (site CTAGACTCTCA)  0.0281
82. CTATGGACTTGGGTTCTAACCTGTTGCAA (site CTATGGACTAT)  0.0174
83. CTACTAGCTTGGGTTCTAACCTGTTGCAG (site CTACTAGCTGT)  0.0122
84. CTAGTGTCTTGGGTTCTAACCTGTTGCTA (site GTAGTGTCTTA)  0.0109
85. CTACGTTCTTGGGTTCTAACCTGTTGCAC (site CTACGCTCTGT)  0
86. CTATATACTTGGGTTCTAACCTGTTGCCA (site CTGTATACTTG)  0
